Reference: patent US7902138B2, “Liquid detergent composition” (The Sun Products Corporation, priority 2003, dated 2011)

Test system: Protease enzyme
Experiment: Residual protease activity in liquid detergent formulation after storage at 37° C. (tetrapeptide substrate assay)
Format: biochemical
Settings: activity determined at 40° C., TRIS pH 9, relative to t=0; for Residual activity after 2 weeks, 0.05% BHT / Residual activity after 4 weeks, 0.05% BHT: 'base' liquid detergent formulation + 0.06% by weight perfume component + 0.05% by weight BHT; for Residual activity after 2 weeks, 0.05% BHT / Residual activity after 2 weeks, No BHT: 2 weeks storage at 37° C.; for Residual activity after 4 weeks, 0.05% BHT / Residual activity after 4 weeks, No BHT: 4 weeks storage at 37° C.; for Residual activity after 2 weeks, No BHT / Residual activity after 4 weeks, No BHT: 'base' liquid detergent formulation + 0.06% by weight perfume component
Procedure: To various samples of this ‘base’ liquid formulation 0.06% by weight based on said formulation of several types of perfume component—as indicated in the tables below—were added such that, as a result, each sample contains a different type of perfume component. To other samples of this ‘base’ formulation not only 0.06% by weight of said perfume components but also 0.05% by weight BHT (2,6-di-tert-butyl hydroxy toluene) were added.
The residual activity of the protease enzyme in all thus-formed formulations after 2 weeks and 4 weeks storage at 37° C., was determined at 40° C. in a TRIS pH 9 buffer and using tetrapeptide as substrate. For this determination, the following protocol was used:
Samples of 70 mg of the tested liquid formulation were diluted in 10.00 ml MilliQ water. 10 μl of this solution was added to an assay of 205 μl containing 74.4 mM TRIS pH9 and 0.494 mM tetrapeptide (succinyl-Ala-Ala-Pro-Phe-p-Nitroanilide). The absorbance of the tested samples at a wavelength of 450 nm was measured for 15 minutes at 40° C., using a spectrophotometer. The absolute changes in absorbance as compared to the absorbance measured on a freshly prepared calibration sample were correlated to the measured activity of such freshly prepared sample. The measured protease enzyme activity is expressed as GU/ml.
The residual enzyme activity (expressed as %) is the enzyme activity after storage of the liquid formulation concerned divided by the enzyme activity measured at t=0.
Tables 1 and 2 show the effect of the addition of 0.05% by weight of BHT on the residual enzyme activity in ‘base’ liquid detergent formulations additionally containing 0.06% by weight of the indicated perfume components, after 2 weeks storage at 37° C. respectively 4 weeks storage at 37° C.

CCC(=O)/C=C/C1C(C)=CCCC1(C)C (stereo not drawn) [Alpha methylionone]
Residual activity after 2 weeks, 0.05% BHT: 84%
Residual activity after 4 weeks, 0.05% BHT: 78%
Residual activity after 2 weeks, No BHT: 39%
Residual activity after 4 weeks, No BHT: 14%

CC(C=O)Cc1ccc(C(C)(C)C)cc1 (centres unmarked) [Lilial]
Residual activity after 2 weeks, 0.05% BHT: 80%
Residual activity after 4 weeks, 0.05% BHT: 68%
Residual activity after 2 weeks, No BHT: 39%
Residual activity after 4 weeks, No BHT: 9%

CC(C)=C1CC[C@@H](C)CC1=O [Pulegone]
Residual activity after 2 weeks, 0.05% BHT: 82%
Residual activity after 4 weeks, 0.05% BHT: 76%
Residual activity after 2 weeks, No BHT: 45%
Residual activity after 4 weeks, No BHT: 16%

CC1=CCC(=C(C)C)CC1 [Terpinolene]
Residual activity after 2 weeks, 0.05% BHT: 85%
Residual activity after 4 weeks, 0.05% BHT: 79%
Residual activity after 2 weeks, No BHT: 51%
Residual activity after 4 weeks, No BHT: 17%

CCCCCCCCCCC=CC=O [Tridecyclenaldehyde]
Residual activity after 2 weeks, 0.05% BHT: 70%
Residual activity after 4 weeks, 0.05% BHT: 54%
Residual activity after 2 weeks, No BHT: 14%
Residual activity after 4 weeks, No BHT: 4%

CC1=CC(C)C(C=O)CC1 (centres unmarked) [Zestover]
Residual activity after 2 weeks, 0.05% BHT: 82%
Residual activity after 4 weeks, 0.05% BHT: 72%
Residual activity after 2 weeks, No BHT: 16%
Residual activity after 4 weeks, No BHT: 5%

Octenal
Residual activity after 2 weeks, 0.05% BHT: 68%
Residual activity after 4 weeks, 0.05% BHT: 46%
Residual activity after 2 weeks, No BHT: 13%
Residual activity after 4 weeks, No BHT: 3%

Terpinegene G
Residual activity after 2 weeks, 0.05% BHT: 72%
Residual activity after 4 weeks, 0.05% BHT: 62%
Residual activity after 2 weeks, No BHT: 48%
Residual activity after 4 weeks, No BHT: 23%
